Columns and labels:
[1] = Pharmacokinetic analysis in serum (LC-MS/MS, non-compartmental)
[2] = tested on: SKMEL28 melanoma cell lines; set-up: method as in PMID 31874374; conditions: intermittently administered; ref [19]; cited from earlier work

accumulation ([1]; during three days of dosing and repeated three-day courses) | average terminal half-life ([1]; from 8h serum concentration curves, likely an underestimation) [h] | time to maximum serum concentration after oral intake ([1]; overall) | SMILES | effect of treatment interruptions on tumor growth [2]
little to no accumulation | 4.3 | approximately 1.7 hours | O=C(NOCCO)c1cc2nc[nH]c2c(F)c1Nc1ccc(Br)cc1Cl [N-desmethyl-selumetinib] | 
 |  |  | O=C(c1ccc(F)c(F)c1Nc1ccc(I)cc1F)N1CC(O)([C@@H]2CCCCN2)C1 [cobimetinib] | Treatment interruptions resulted in tumor regrowth that could not be compensated when drug administration was resumed
